{
  "source": "paper PMC11676196",
  "about": "“Inhibition of TFAM-Mediated Mitophagy by Oroxylin A Restored Sorafenib Sensitivity Under Hypoxia Conditions in HepG2 Cells” (Pharmaceuticals, 2024)",
  "molecular_target": "T1, TFAM (mitochondrial transcription factor A) (Homo sapiens, UniProt Q00059)",
  "T1 construct": "endogenous protein in intact human HepG2 cells",
  "T1 sequence (Q00059 43-246)": "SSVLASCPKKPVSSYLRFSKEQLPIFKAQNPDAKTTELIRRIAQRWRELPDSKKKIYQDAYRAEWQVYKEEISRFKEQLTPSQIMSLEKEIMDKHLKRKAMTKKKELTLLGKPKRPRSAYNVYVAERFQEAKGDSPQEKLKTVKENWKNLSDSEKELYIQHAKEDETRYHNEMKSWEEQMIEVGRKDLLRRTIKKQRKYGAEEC",
  "experiment": "cellular thermal shift assay (CETSA), Western blot",
  "format": "cell-based",
  "details": "intact cells incubated 2 h with or without OA, heated 3 min at 43 to 70 °C; rightward shift of melting curve",
  "data": [
    {"smiles": "COc1c(O)cc2oc(-c3ccccc3)cc(=O)c2c1O", "note": "[Oroxylin A]", "values": [
      {"measurement": "thermal shift", "value": "thermal shift assays showed a significant rightward shift in the thermal melting curve upon OA administration"}
    ]}
  ]
}
